Reference: patent publication US20250353873A1, “COMPOUNDS AND METHODS FOR MODULATING APOE EXPRESSION” (Ionis Pharmaceuticals, Inc., priority 2024, published 2025)
Marks after values point to notes of the source that are not given here. Strand notation (5' to 3'): a small letter for the sugar, then the base; units joined by * are phosphorothioate-linked, units joined directly phosphodiester-linked; [ ] holds rarer units or linkages, { } end groups; capitals alone tell only the bases. [ms] = mesyl phosphoramidate linkage; e = 2'-O-(2-methoxyethyl) (MOE); k = constrained ethyl (cEt); [5mC] = 5-methylcytosine; d = 2'-deoxy (DNA)

Assays:
human APOE RNA [1] = assay: Activity in APOE 1549 knock-in mice, single ICV bolus, 2 weeks (Example 7); type: in vivo; conditions: single ICV bolus of 300 μg, two weeks post treatment, Table 16
Experimental: Modified oligonucleotides described above were tested in APOE knock-in mice.
APOE knock-in mice (model 41549) were obtained from Taconic Biosciences. APOE knock-in mice were divided into groups of 2 mice each. Each mouse received a single intracerebroventricular (ICV) bolus of 300 μg of modified oligonucleotide. A group of 4 mice received a single ICV bolus with PBS as a negative control.
Two weeks post treatment, mice were sacrificed and RNA was extracted from cortical brain tissue and spinal cord for quantitative real-time RT-PCR analysis of RNA expression of APOE using primer probe set RTS3073 (described herein above). APOE RNA levels were normalized to mouse Ppia. Mouse Ppia was amplified using primer probe set m_cyclo24 (forward sequence TCGCCGCTTGCTGCA, designated herein as SEQ ID NO: 16; reverse sequence ATCGGCCGTGATGTCGA, designated herein as SEQ ID NO: 17; probe sequence […], designated herein as SEQ ID NO: 18). Results are presented as percent human APOE RNA relative to the amount of human APOE RNA in PBS treated animals, (% control). Each experiment is identified in separate tables below.

human APOE RNA [2] = assay: Activity in APOE C57BL/6NTac-Apoeem7250 knock-in mice, single ICV bolus, 4 weeks (Example 10); type: in vivo; conditions: single ICV bolus 300 μg, 4 weeks post treatment, normalized to mouse Ppia
Procedure, shortened: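 Human APOE RNA, quantified by real-time RT-PCR with RTS3073 and normalized to mouse Ppia, was read in cortical brain and spinal cord 4 weeks post dosing. Dosing was a single ICV bolus of 300 μg per knock-in mouse; values are % of PBS-treated animals.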

human APOE RNA [3] = assay: Dose-dependent inhibition of human APOE RNA in HepG2 cells, electroporation, 50,000 cells per well, RT-PCR normalized to GAPDH (Example 4, Tables 8-10); type: cell-based; conditions: HepG2 cells, electroporation, Table 8
Procedure, shortened: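 Readout is percent APOE RNA versus untreated controls, measured by RT-PCR (primer probe set RTS3073) and normalized to human GAPDH. Modified oligonucleotides were delivered by electroporation at varying doses into HepG2 cells plated at 50,000 per well.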

human APOE RNA [4] = assay: Activity in APOE C57BL/6NTac-Apoeem7250 knock-in mice, single ICV bolus, 20 weeks (Example 13); type: in vivo; conditions: single ICV bolus 300 μg, 20 weeks post treatment, normalized to mouse Ppia
Procedure, shortened: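 Cortical and spinal cord RNA was assayed by real-time RT-PCR for human APOE, normalized to mouse Ppia and reported as percent of PBS controls. Tissue was taken twenty weeks after one 300 μg intracerebroventricular bolus in APOE knock-in mice, 4 per group.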

human APOE RNA [5] = assay: Activity in APOE C57BL/6NTac-Apoeem7250 knock-in mice, single ICV bolus, 8 weeks (Example 11); type: in vivo; conditions: single ICV bolus 300 μg, 8 weeks post treatment, normalized to mouse Ppia
Procedure, shortened: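 Cortical and spinal cord human APOE RNA quantified by RT-qPCR 8 weeks after a single 300 μg ICV dose in knock-in mice, Ppia-normalized. Values are percent of levels in PBS-treated animals.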

human APOE RNA [6] = assay: Potency (dose response, ED50) in APOE C57BL/6NTac-Apoeem7250 knock-in mice, 4 weeks (Example 14); type: in vivo
Experimental: Modified oligonucleotides described above were tested in the APOE C57BL/6NTac-Apoeem7250 knock-in mouse model described above.
APOE C57BL/6NTac-Apoeem7250 knock-in mice were divided into groups of 3-4 mice each. A group of 3-4 mice received a single ICV bolus with PBS as a negative control.
Four weeks post treatment, mice were sacrificed, and RNA was extracted from cortical brain tissue and spinal cord for quantitative real-time RT-PCR analysis of RNA expression of […] using human primer probe set RTS3073 (described herein above). APOE RNA levels were normalized to mouse Ppia. Mouse Ppia was amplified using primer probe set m_cyclo24 (described herein above). Results are presented as percent human APOE RNA relative to the amount of APOE RNA in PBS treated animals, (% control). N.C. indicates values that were not calculated. Each experiment is identified in separate tables below.
The half maximal effective dose (ED50) of each modified oligonucleotide was calculated using GraphPad Prism 10 software (GraphPad Software, San Diego, CA).

human APOE RNA [7] = assay: Activity in APOE C57BL/6NTac-Apoeem7250 knock-in mice, single ICV bolus, 16 weeks (Example 12); type: in vivo; conditions: single ICV bolus 300 μg, 16 weeks post treatment, normalized to mouse Ppia
Procedure, shortened: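 A single 300 μg intracerebroventricular dose was given, with PBS-treated mice as reference; cortical and spinal cord tissue was taken 16 weeks later. RT-qPCR quantified human APOE RNA, Ppia-normalized, expressed relative to PBS animals (% control).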

human APOE RNA [8] = assay: Duration of action study in APOE C57BL/6NTac-Apoeem7250 knock-in mice (Example 18); type: in vivo; conditions: 300 μg ICV
Experimental: Modified oligonucleotides described above were tested in the APOE C57BL/6NTac-Apoeem7250 knock-in model (described above).
Each mouse received a single intracerebroventricular (ICV) bolus of 300 μg of modified oligonucleotide. A group of 4-6 mice received a single ICV bolus with PBS as a negative control.
Mice were sacrificed at various timepoints as indicated in the table below and RNA was extracted from cortical brain tissue and spinal cord for quantitative real-time RT-PCR analysis of RNA expression of APOE using primer probe set RTS3073 (described herein above). APOE RNA levels were normalized to mouse Ppia. Mouse Ppia was amplified using primer probe set m_cyclo24 (described herein above). Results are presented as percent human APOE RNA relative to the amount of human APOE RNA in PBS treated animals, (% control). Each experiment is identified in separate tables below.

1601955: 6-10-4 MOE gapmer GCTAATTCAGTCCTCATTTT, linkages sooooossssssssssoss (antisense eG*e[5mC]eTeAeAeTdT*d[5mC]*dA*dG*dT*d[5mC]*d[5mC]*dT*d[5mC]*dA*eTeT*eT*eT) [compound 1601955]
APOE RNA (% control) Cortex (human APOE RNA [1]): 98 % control | APOE RNA (% control) Spinal Cord (human APOE RNA [1]): 111 % control

1601943: 6-10-4 MOE gapmer GTCCTCATTTTAAAGTTCTC, linkages sooooossssssssssoss (antisense eG*eTe[5mC]e[5mC]eTe[5mC]dA*dT*dT*dT*dT*dA*dA*dA*dG*dT*eTe[5mC]*eT*e[5mC]) [compound 1601943]
APOE RNA (% control) Cortex (human APOE RNA [1]): 115 % control | APOE RNA (% control) Spinal Cord (human APOE RNA [1]): 113 % control

1778154: modified oligonucleotide complementary to human APOE RNA (e[5mC]*eT*eTeGeGeT*dG[ms]dA[ms]dA*dT*d[5mC]*dT*dT*dT*dA*dT*kTkAeA*eA; antisense) [compound 1778154]
APOE RNA (% control) Cortex (human APOE RNA [2]; cortex): 30 % control | APOE RNA (% control) Spinal Cord (human APOE RNA [2]; spinal cord): 44 % control | APOE RNA (% UTC) 5 nM (human APOE RNA [3]; 24-hour treatment, 5 nM): 101 % UTC | APOE RNA (% UTC) 13 nM (human APOE RNA [3]; 24-hour treatment, 13 nM): 97 % UTC | APOE RNA (% UTC) 33 nM (human APOE RNA [3]; 24-hour treatment, 33 nM): 91 % UTC | APOE RNA (% UTC) 82 nM (human APOE RNA [3]; 24-hour treatment, 82 nM): 98 % UTC | APOE RNA (% UTC) 205 nM (human APOE RNA [3]; 24-hour treatment, 205 nM): 76 % UTC | APOE RNA (% UTC) 512 nM (human APOE RNA [3]; 24-hour treatment, 512 nM): 58 % UTC | APOE RNA (% UTC) 1,280 nM (human APOE RNA [3]; 24-hour treatment, 1,280 nM): 47 % UTC | APOE RNA (% UTC) 3,200 nM (human APOE RNA [3]; 24-hour treatment, 3,200 nM): 22 % UTC | APOE RNA (% UTC) 8,000 nM (human APOE RNA [3]; 24-hour treatment, 8,000 nM): 35 % UTC | APOE RNA (% UTC) 20,000 nM (human APOE RNA [3]; 24-hour treatment, 20,000 nM): 8 % UTC | IC50 (human APOE RNA [3]; reduction of human APOE RNA, 24-hour treatment): 1080 nM | APOE RNA (% control) Cortex (human APOE RNA [4]; cortex): 82 % control | APOE RNA (% control) Spinal Cord (human APOE RNA [4]; spinal cord): 46 % control | APOE RNA (% control) Cortex (human APOE RNA [5]): 29 % control | APOE RNA (% control) Spinal Cord (human APOE RNA [5]): 32 % control | APOE RNA (% control) Cortex (human APOE RNA [6]; cortex, ICV dose 10 μg): 89 % control | APOE RNA (% control) Cortex (human APOE RNA [6]; cortex, ICV dose 30 μg): 89 % control | APOE RNA (% control) Cortex (human APOE RNA [6]; cortex, ICV dose 100 μg): 70 % control | APOE RNA (% control) Cortex (human APOE RNA [6]; cortex, ICV dose 300 μg): 56 % control | APOE RNA (% control) Cortex (human APOE RNA [6]; cortex, ICV dose 700 μg): 27 % control | ED 50 (μg) Cortex (human APOE RNA [6]; cortex, single ICV bolus, GraphPad Prism 10): 279.4 µg | APOE RNA (% control) Spinal Cord (human APOE RNA [6]; spinal cord, ICV dose 10 μg): 105 % control | APOE RNA (% control) Spinal Cord (human APOE RNA [6]; spinal cord, ICV dose 30 μg): 137 % control | APOE RNA (% control) Spinal Cord (human APOE RNA [6]; spinal cord, ICV dose 100 μg): 38 % control | APOE RNA (% control) Spinal Cord (human APOE RNA [6]; spinal cord, ICV dose 300 μg): 43 % control | APOE RNA (% control) Spinal Cord (human APOE RNA [6]; spinal cord, ICV dose 700 μg): 47 % control | ED 50 (μg) Spinal Cord (human APOE RNA [6]; spinal cord, single ICV bolus, GraphPad Prism 10): 243.1 µg | APOE RNA (% control) Cortex (human APOE RNA [7]; cortex): 50 % control | APOE RNA (% control) Spinal Cord (human APOE RNA [7]; spinal cord): 29 % control

1809636 (kA*e[5mC]eTeT*eG*kG*dT*dG[ms]dA[ms]dA[ms]dT*d[5mC]*dT*dT*dT*dA[ms]kT*kT*eA*kA; antisense) [Compound 1809636]
APOE RNA (% control) Cortex (human APOE RNA [5]): 16 % control | APOE RNA (% control) Spinal Cord (human APOE RNA [5]): 11 % control | APOE RNA (% control) Cortex (human APOE RNA [8]; 56 days post-dose): 32 % control | APOE RNA (% control) Cortex (human APOE RNA [8]; 112 days post-dose): 33 % control | APOE RNA (% control) Cortex (human APOE RNA [8]; 224 days post-dose): 65‡ % control | APOE RNA (% control) Spinal Cord (human APOE RNA [8]; 56 days post-dose): 14 % control | APOE RNA (% control) Spinal Cord (human APOE RNA [8]; 112 days post-dose): 13 % control | APOE RNA (% control) Spinal Cord (human APOE RNA [8]; 224 days post-dose): 41‡ % control

1809637 (kA*e[5mC]eTeT*eG*kG*dT*dG[ms]dA[ms]dA[ms]dT*d[5mC]*dT*dT*dT*dA[ms]kT*kT*kA*kA; antisense) [Compound 1809637]
APOE RNA (% control) Cortex (human APOE RNA [5]): 20 % control | APOE RNA (% control) Spinal Cord (human APOE RNA [5]): 9 % control | APOE RNA (% control) Cortex (human APOE RNA [8]; 56 days post-dose): 26‡ % control | APOE RNA (% control) Cortex (human APOE RNA [8]; 112 days post-dose): 42 % control | APOE RNA (% control) Cortex (human APOE RNA [8]; 224 days post-dose): 58‡ % control | APOE RNA (% control) Spinal Cord (human APOE RNA [8]; 56 days post-dose): 19 % control | APOE RNA (% control) Spinal Cord (human APOE RNA [8]; 112 days post-dose): 17 % control | APOE RNA (% control) Spinal Cord (human APOE RNA [8]; 224 days post-dose): 36‡ % control

1810064: mixed MOE/cEt gapmer CTTGGTGAATCTTTATTAAAC, sugar eeeeekddddddddddeeeee, linkages ssoooszzzssssszsooss (e[5mC]*eT*eTeGeGkT*dG[ms]dA[ms]dA[ms]dT*d[5mC]*dT*dT*dT*dA[ms]dT*eTeAeA*eA*e[5mC]) [compound 1810064]
APOE RNA (% control) Cortex (human APOE RNA [5]): 23 % control | APOE RNA (% control) Spinal Cord (human APOE RNA [5]): 15 % control | APOE RNA (% control) Cortex (human APOE RNA [8]; 28 days post-dose): 40 % control | APOE RNA (% control) Cortex (human APOE RNA [8]; 112 days post-dose): 62 % control | APOE RNA (% control) Cortex (human APOE RNA [8]; 140 days post-dose): 63 % control | APOE RNA (% control) Spinal Cord (human APOE RNA [8]; 28 days post-dose): 22 % control | APOE RNA (% control) Spinal Cord (human APOE RNA [8]; 112 days post-dose): 31 % control | APOE RNA (% control) Spinal Cord (human APOE RNA [8]; 140 days post-dose): 48 % control
